Measurements from patent publication US12653809B2, “Urea, amide, and substituted heteroaryl compounds for CBL-B inhibition” (Nurix Therapeutics, Inc., priority 2019, dated 2026).
Where two headings read alike, the source gives them in different places.

Biological target: T1, Cbl-b (truncated variant, UniProt number Q13191) (Homo sapiens, UniProt Q13191)
T1 construct: made in house
Assay: Cbl-b activity assay (TR-FRET, interaction of Cbl-b with UbcH5B-Ub)
Type: biochemical
Excerpt: As described in Biological Example 1A, a Cbl-b activity assay (Cbl-b inhibition assay) used to measure the IC50 values for Cbl-b inhibition uses a mixture comprising candidate compound, Cbl-b (truncated, with an Avitag, and biotinylated), a fluorescently-labeled E2 enzyme UbcH5B labelled with ubiquitin conjugated to BODIPY-fluorescein (UbcH5B-Ub), streptavidin-terbium, and assay buffer. In one embodiment, the Cbl-b activity assay (Cbl-b inhibition assay) used to measure IC50 for inhibition of Cbl-b uses the conditions described in Biological Example 1A with 12 nM Cbl-b. […] In another embodiment, the Cbl-b activity assay (Cbl-b inhibition assay) used to measure IC50 for inhibition of Cbl-b uses the conditions described in Biological Example 1B, with candidate compound, 0.125 nM Cbl-b (truncated, with an avitag, and biotinylated), fluorescently labelled inhibitor probe, and assay buffer. Displacement of the inhibitor probe indicates Cbl-b activity.
Candidate compounds isolated from screening assays were evaluated for their ability to bind and inhibit Cbl-b, an E3 ubiquitin-protein ligase.
The ability of candidate compounds to inhibit Cbl-b activity was measured by monitoring the interaction of Cbl-b with UbcH5B-Ub in the presence of the candidate compound. A truncated variant of Cbl-b (UniProt number Q13191; SEQ ID NO:1) containing an Avitag at its N-terminus was co-expressed with BirA biotin ligase and purified using a standard protocol (see Dou et al., Nature Structural and Molecular Biology 8: 982-987, 2013; Avidity LLC).
Fluorescently labeled UbcH5B-Ub was prepared by conjugating ubiquitin (Ub), labeled at its N-terminus with Bodipy-Fluorescein, to UbcH5B, an E2 enzyme, harboring a cysteine to lysine mutation at position 85. This mutation is similar to a mutation that was previously reported (see Dou et al., Nature Structural and Molecular Biology 8: 982-987, 2013). Cbl-b activity assays were performed in a 384-well plate at room temperature in a 10 μL reaction volume by pre-incubating 12 nM Cbl-b (final concentration) in an assay buffer containing 50 mM HEPES pH 7.0, 100 mM NaCl, 0.01% Triton X-100, 0.01% BSA, and 1 mM DTT in the presence of a candidate compound in 1% DMSO (final concentration, High Conditions) for one hour. After incubation in the presence of the candidate compound, the plate was incubated for an additional 1.5 hours in the presence of 60 nM Src kinase with 1 mM ATP and 5 mM MgCl2 (final concentrations). Alternatively, compounds were tested as described above with assay buffer containing 50 mM NaCl instead of 100 mM NaCl and 30 nM Src kinase instead of 60 nM Src kinase (Low Conditions). Src kinase was prepared as previously described (see Kobashigawa et al., Proc Natl Acad Sci USA, 108: 20579-20584, 2011). […] The plate was incubated for one hour. Following the one hour incubation, the plates were read for TR-FRET signal at 520/620 nm using Envision plate reader (Perkin Elmer). The presence of a FRET signal that indicated Cbl-b was not inhibited by the compound candidate. The absence of a FRET signal indicated Cbl-b was inhibited by the compound candidate and was therefore a Cbl-b inhibitor.
The resulting data for the Cbl-b activity assays were analyzed using standard methods to report the IC50 values of the tested compounds (Tables 3-4). The resulting data for the Cbl-b binding assay was solvent corrected and double-referenced prior to analysis. All data were globally fit to a steady-state affinity and kinetic binding model where applicable. Compounds were ranked into bins A through D as follows for IC50: A indicates <0.1 μM, B indicates 0.1 μM≤IC50<1 μM, C indicates 1 μM≤IC50<5 μM, and D indicates 5 μM≤IC50.

[1] = Biological Example 1A, low or high conditions not stated, read-out: IC50 values in the Cbl-b inhibition assay of Biological Example 1A
[2] = high conditions: 100 mM NaCl, 60 nM Src kinase, 12 nM Cbl-b, read-out: Cbl-b activity IC50

T1 sequence (Q13191 36-427): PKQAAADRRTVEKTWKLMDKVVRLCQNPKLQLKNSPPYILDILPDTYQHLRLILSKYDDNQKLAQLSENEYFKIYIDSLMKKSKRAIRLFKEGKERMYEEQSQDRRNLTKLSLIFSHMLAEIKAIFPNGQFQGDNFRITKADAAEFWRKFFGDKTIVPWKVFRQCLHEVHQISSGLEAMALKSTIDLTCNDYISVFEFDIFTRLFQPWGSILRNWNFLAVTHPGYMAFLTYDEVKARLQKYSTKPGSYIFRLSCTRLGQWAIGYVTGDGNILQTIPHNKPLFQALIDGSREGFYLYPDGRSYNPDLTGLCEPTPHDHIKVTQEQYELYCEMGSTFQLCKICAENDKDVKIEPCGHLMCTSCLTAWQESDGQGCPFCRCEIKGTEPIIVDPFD

| Compound | IC50 [1] [µM] | IC50 [2] [µM] | IC50 (low conditions: 50 mM NaCl, 30 nM Src kinase, 12 nM Cbl-b, read-out: Cbl-b activity IC50) [µM] |
| --- | --- | --- | --- |
| CC(Sc1nncn1C)c1cccc(-c2cc(-c3cccc(C(F)(F)F)c3)no2)c1 (stereo not shown) [Example 69, 5-(3-(1-((4-methyl-4H-1,2,4-triazol-3-yl)thio)ethyl)phenyl)-3-(3-(trifluoromethyl)phenyl)isoxazole] | 1 to 5 | 1 to 5 | – |
| Cc1cccc(-c2cc(-c3cccc([C@H](C)Sc4nncn4C)c3)on2)c1 [Example 56, 4-methyl-3-[[(1S)-1-[3-[3-(3-methylphenyl)-1,2-oxazol-5-yl]phenyl]ethyl]sulfanyl]-4H-1,2,4-triazole] | – | 1 to 5 | – |
| C[C@H](Sc1nncn1C)c1cccc(NC(=O)Nc2cccc(C(F)(F)F)n2)c1 [Example 3, (S)-1-(3-(1-((4-methyl-4H-1,2,4-triazol-3-yl)thio)ethyl)phenyl)-3-(6-(trifluoromethyl)pyridin-2-yl)urea] | 0.1 to 1 | 0.1 to 1 | – |
| C[C@H](Sc1nncn1C)c1cccc(C(=O)Nc2cc(C(F)(F)F)ccn2)c1 [Example 36, (S)-3-(1-((4-methyl-4H-1,2,4-triazol-3-yl)thio)ethyl)-N-(4-(trifluoromethyl)pyridin-2-yl)benzamide] | 1 to 5 | 1 to 5 | – |
| C[C@@H](Sc1nncn1C)c1cccc(-c2cc(-c3ccccc3)no2)c1 [Example 68, (R)-5-(3-(1-((4-methyl-4H-1,2,4-triazol-3-yl)thio)ethyl)phenyl)-3-phenylisoxazole] | ≥ 5 | ≥ 5 | – |
| CN1CCC2(CC1)CN(C(=O)Nc1cccc(C3(Cc4nncn4C)COC3)c1)c1ncccc12 [Example 31, 1-methyl-N-(3-(3-((4-methyl-4H-1,2,4-triazol-3-yl)methyl)oxetan-3-yl)phenyl)spiro[piperidine-4,3′-pyrrolo[2,3-b]pyridine]-1′(2′H)-carboxamide] | 0.1 to 1 | 0.1 to 1 | – |
| C[C@H](Sc1nncn1C)c1cccc(NC(=O)N2CCc3ccccc32)c1 [Example 7, (S)—N-(3-(1-((4-methyl-4H-1,2,4-triazol-3-yl)thio)ethyl)phenyl)indoline-1-carboxamide] | – | ≥ 5 | – |
| CNC(=O)c1ccc(-c2cn(-c3cccc([C@H](C)Sc4nncn4C)c3)nn2)cc1 [Example 83, (S)—N-methyl-4-(1-(3-(1-(4-methyl-4H-1,2,4-triazol-3-ylthio)ethyl)phenyl)-1H-1,2,3-triazol-4-yl)benzamide] | ≥ 5 | ≥ 5 | – |
| COc1cccc(NC(=O)Nc2cccc([C@H](C)Sc3nncn3C)c2)n1 [Example 4, (S)-1-(6-methoxypyridin-2-yl)-3-(3-(1-((4-methyl-4H-1,2,4-triazol-3-yl)thio)ethyl)phenyl)urea] | – | ≥ 5 | – |
| CNC(=O)c1ccc(-c2cc(-c3cccc([C@H](C)Sc4nncn4C)c3)on2)cc1 [Example 65, (S)—N-methyl-4-(5-(3-(1-(4-methyl-4H-1,2,4-triazol-3-ylthio)ethyl)phenyl)isoxazol-3-yl)benzamide] | 1 to 5 | 1 to 5 | – |
| CNC(=O)C1(C)CCN(C(=O)Nc2cccc([C@H](C)Cc3nncn3C)c2)C1 (stereo partly drawn) [Example 12, N^3,3-dimethyl-N′-(3-((R)-1-(4-methyl-4H-1,2,4-triazol-3-yl)propan-2-yl)phenyl)pyrrolidine-1,3-dicarboxamide] | ≥ 5 | ≥ 5 | – |
| C[C@H](Sc1nncn1C)c1cccc(NC(=O)NCc2ccccc2)c1 [Example 5, (S)-1-benzyl-3-(3-(1-((4-methyl-4H-1,2,4-triazol-3-yl)thio)ethyl)phenyl)urea] | – | – | ≥ 5 |
| C[C@H](Sc1nncn1C)c1cccc(NC(=O)N2CC3CCCC3C2)c1 (stereo partly drawn) [Example 40, N-(3-((S)-1-((4-methyl-4H-1,2,4-triazol-3-yl)thio)ethyl)phenyl)hexahydrocyclopenta[c]pyrrole-2(1H)-carboxamide] | 1 to 5 | 1 to 5 | – |
| COC(=O)C1(C(F)(F)F)CCN(C(=O)Nc2cccc([C@H](C)Cc3nncn3C)c2)C1 (stereo partly drawn) [Example 11, Methyl 1-((3-((R)-1-(4-methyl-4H-1,2,4-triazol-3-yl)propan-2-yl)phenyl)carbamoyl)-3-(trifluoromethyl)pyrrolidine-3-carboxylate] | 1 to 5 | 1 to 5 | – |
| C[C@H](Sc1nncn1C)c1cccc(-c2cc(-c3cccc(C#N)c3)no2)c1 [Example 62, (S)-3-(5-(3-(1-(4-methyl-4H-1,2,4-triazol-3-ylthio)ethyl)phenyl)isoxazol-3-yl)benzonitrile] | – | 1 to 5 | – |
| CNC(=O)C1(C(F)(F)F)CCN(C(=O)Nc2cccc([C@H](C)Sc3nncn3C)c2)C1 (stereo partly drawn) [Example 50, N^3-methyl-N^1-(3-((S)-1-((4-methyl-4H-1,2,4-triazol-3-yl)thio)ethyl)phenyl)-3-(trifluoromethyl)pyrrolidine-1,3-dicarboxamide] | 1 to 5 | 1 to 5 | – |

The next lines start with the values.

| IC50 [1] [µM] | IC50 [2] [µM] | IC50 (low conditions: 50 mM NaCl, 30 nM Src kinase, 12 nM Cbl-b, read-out: Cbl-b activity IC50) [µM] | Compound |
| --- | --- | --- | --- |
| 0.1 to 1 | 0.1 to 1 | – | C[C@H](Cc1nncn1C)c1cccc(-c2n[nH]c3ccc(C(F)(F)F)nc23)c1 [Example 116, (R)-3-(3-(1-(4-methyl-4H-1,2,4-triazol-3-yl)propan-2-yl)phenyl)-5-(trifluoromethyl)-1H-pyrazolo[4,3-b]pyridine] |
| ≥ 5 | ≥ 5 | – | C[C@H](Sc1nncn1C)c1cccc(-n2cc(-c3ccc(CO)cc3)nn2)c1 [Example 85, (S)-(4-(1-(3-(1-(4-methyl-4H-1,2,4-triazol-3-ylthio)ethyl)phenyl)-1H-1,2,3-triazol-4-yl)phenyl)methanol] |
| – | ≥ 5 | – | C[C@H](Sc1nncn1C)c1cccc(NC(=O)N2CC3(CCC3O)C2)c1 (stereo partly drawn) [Example 133, 5-hydroxy-N-(3-((S)-1-((4-methyl-4H-1,2,4-triazol-3-yl)thio)ethyl)phenyl)-2-azaspiro[3.3]heptane-2-carboxamide] |
| – | ≥ 5 | – | C[C@H](Sc1nncn1C)c1cccc(NC(=O)N2CC3(CCOC(=O)N3)C2)c1 [Example 141, (S)—N-(3-(1-((4-methyl-4H-1,2,4-triazol-3-yl)thio)ethyl)phenyl)-6-oxo-7-oxa-2,5-diazaspiro[3.5]nonane-2-carboxamide] |
| – | 0.1 to 1 | – | C[C@H](Cc1nncn1C)c1cccc(-c2cc(-c3ncccn3)n[nH]2)c1 [Example 106, (R)-2-(3-(3-(1-(4-methyl-4H-1,2,4-triazol-3-yl)propan-2-yl)phenyl)-1H-pyrazol-5-yl) pyrimidine] |
| 1 to 5 | 1 to 5 | – | CNC(=O)c1cccc(-c2cnn(-c3cccc([C@H](C)Sc4nncn4C)c3)n2)c1 [Example 93, (S)—N-methyl-3-(2-(3-(1-(4-methyl-4H-1,2,4-triazol-3-ylthio)ethyl)phenyl)-2H-1,2,3-triazol-4-yl)benzamide] |
| – | ≥ 5 | – | C[C@H](Sc1nncn1C)c1cccc(NC(=O)N2CCS(=O)(=O)CC2)c1 [Example 165, (S)—N-(3-(1-((4-methyl-4H-1,2,4-triazol-3-yl)thio)ethyl)phenyl)thiomorpholine-4-carboxamide 1,1-dioxide] |
| – | ≥ 5 | – | C[C@H](Sc1nncn1C)c1cccc(NC(=O)Nc2ccc(S(=O)(=O)N(C)C)cc2)c1 [Example 158, (S)—N,N-dimethyl-4-(3-(3-(1-((4-methyl-4H-1,2,4-triazol-3-yl)thio)ethyl)phenyl)ureido)benzenesulfonamide] |
| 1 to 5 | 1 to 5 | – | C[C@H](Sc1nncn1C)c1cccc(-n2ncc(-c3cccc(C(=O)O)c3)n2)c1 [Example 90, (S)-3-(2-(3-(1-(4-methyl-4H-1,2,4-triazol-3-ylthio)ethyl)phenyl)-2H-1,2,3-triazol-4-yl)benzoic acid] |
